Assay results taken from patent US20260364184A1, “COMPOUND BASED ON OXOISOINDOLINYL-SUBSTITUTED TETRAHYDROPYRIMIDINE-DIONE AND USE THEREOF” (GLUETACS THERAPEUTICS (SHANGHAI) CO., LTD., priority 2023, published 2026).

Tests used:
[1] = system: Human large cell immunoblastic lymphoma cell line SR; test: Inhibition of SR cell proliferation (CellTiter luminescent viability); assay type: cell-based; settings: 96 hours; for inhibition at 0.01 µM / inhibition at 0.5 µM: Homo sapiens; for inhibition at 0.01 µM: read-out: Inhibition Rate at 10 nM (%); for inhibition at 0.5 µM: read-out: Inhibition Rate at 500 nM (%)
Outline: (§1)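 Cells are seeded in 96-well plates, cultured at 37 °C, 5% CO2, and treated next day with 5-fold serial compound dilutions (stock series from 2000 μM; 0.5 μL into 100 μL medium). Viability is read by CellTiter-Meiluncell luminescence after the set exposure, and IC50 is taken from growth-inhibition curves.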

[2] = system: Human myeloid monocytic leukemia cell line (MV-4-11); test: Inhibition of MV-4-11 cell proliferation (CellTiter luminescent viability); assay type: cell-based; settings: for inhibition at 0.01 µM / inhibition at 0.5 µM: Homo sapiens, MV4-11, Table IB2, ALK inhibitor-based, 96 hours; for inhibition at 0.01 µM: MV-4-11, 10 nM, read-out: Inhibition Rate at 10 nM (%); for inhibition at 0.5 µM: MV-4-11, 500 nM, read-out: Inhibition Rate at 500 nM (%)
Outline: as §1

[3] = system: Human non-small cell lung cancer cell line NCI-H2228; test: Inhibition of H2228 cell proliferation (CellTiter luminescent viability); settings: Table IB2, ALK inhibitor-based, 96 hours; for inhibition at 0.01 µM: H2228, 10 nM, read-out: Inhibition Rate at 10 nM (%); for inhibition at 0.5 µM: H2228, 500 nM, read-out: Inhibition Rate at 500 nM (%)
Description: (§2) The tumor cells used herein were cultured in a cell culture medium listed in table 3 at 37 °C in an incubator with 5% CO2. Prior to experimentation, all cell lines used were correctly identified by STR profiling, and tested negative for mycoplasma contamination using a mycoplasma detection kit through routine screenings.
(§3) The IC50 values of the compounds of the present disclosure (including the compounds in Table 1, Table 2, and Examples 1-468) were determined using the CellTiter-Meiluncell Luminescent Cell Viability Assay Kit from Dalian Meilun Biotech Co., Ltd. The detailed procedure is as follows: Tumor cells were seeded in 96-well cell culture plates at the densities specified in Table 4. On the following day, the test compounds of the present disclosure were subjected to serial dilution. The dilution can be performed according to one of the following two methods: • (1) The first dilution method: The test compounds of the present disclosure (including the compounds in Table 1, Table 2, and Examples 1-468) were subjected to 5-fold serial dilutions starting from a highest concentration of 2000 μM, resulting in a total of 9 concentrations from high to low (2000, 400, 80, 16, 3.2, 0.64, 0.128, 0.0256, 0.00512 μM). Subsequently, 0.5 μL of the test compound dilution was transferred into the 96-well plate containing the cells, with each well containing 100 μL of cell culture medium. […] Into the 96-well plate, the diluted test compounds and corresponding detection reagents were added, resulting in final test compound concentrations of 500 nM and 10 nM, respectively. The experimental procedure is described below using the diluted 2 μM test compound as an example.
(§4) 0.5 μL of the aforementioned diluted compound of the present disclosure (including the compounds in Table 1, Table 2, and Examples 1-468) was added to the seeded cells in 100 μL of medium, yielding a final test compound concentration of 10 nM. After the cells were treated with the compounds of the present disclosure for a specified period, the cell viability assay reagent was added to the culture medium according to the kit's instructions to determine cell viability. […] All controls were treated using the same procedure as the compounds of the present disclosure. The growth inhibition curves for the compounds of the present disclosure were plotted using Prism GraphPad software, and the IC50 values were calculated therefrom.

[4] = target: T1, human Cereblon WT GST-tagged protein (CRBN) (Homo sapiens, UniProt Q96SW2); test: CRBN binding by HTRF (Cereblon binding kit)
T1 construct: purchased CISBIO 64BDCRBNPEH
T1 sequence (Q96SW2 whole entry): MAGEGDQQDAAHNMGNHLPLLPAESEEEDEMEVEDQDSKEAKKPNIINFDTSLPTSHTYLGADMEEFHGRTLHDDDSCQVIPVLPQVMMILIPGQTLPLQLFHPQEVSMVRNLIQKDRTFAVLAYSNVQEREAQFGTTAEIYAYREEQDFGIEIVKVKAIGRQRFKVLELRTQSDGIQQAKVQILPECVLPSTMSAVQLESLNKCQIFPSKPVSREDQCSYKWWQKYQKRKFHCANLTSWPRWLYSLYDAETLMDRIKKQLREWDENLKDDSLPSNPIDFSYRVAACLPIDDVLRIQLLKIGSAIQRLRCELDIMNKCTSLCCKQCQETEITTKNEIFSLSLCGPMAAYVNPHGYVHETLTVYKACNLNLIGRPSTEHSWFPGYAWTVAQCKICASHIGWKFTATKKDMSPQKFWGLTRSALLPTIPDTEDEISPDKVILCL
Outline: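 GST-tagged human Cereblon WT was incubated 3 h at room temperature with compound, thalidomide-Re tracer and Eu anti-GST antibody. Final compound concentrations were 10 to 0.00064 µM (7 points) or 2 and 0.5 µM. Inhibition rate was calculated from HTRF 665/620 nm ratios versus solvent and blank controls.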

[5] = system: Human diffuse large B-cell lymphoma cell line (WSU-DLCL2); test: Inhibition of WSU-DLCL2 cell proliferation (CellTiter luminescent viability); assay type: cell-based
Description: as §2, §3, §4

[6] = system: Human Acute T Lymphoblastic Leukemia Cells (Molt-4); test: Inhibition of Molt-4 cell proliferation (CellTiter luminescent viability); assay type: cell-based; settings: Molt-4
[7] = Table IB2, ALK inhibitor-based, 10 nM
[8] = Table IB2, ALK inhibitor-based, 500 nM

IC50 ([1]; Table IB1, ALK inhibitor-based, read-out: Inhibitory activity (IC50, nM) on tumor cell proliferation, SR) [nM] | Inhibition Rate at 0.5 μM (%) ([4]; 0.5 μM) | Inhibition Rate at 2 μM (%) ([4]; 2 μM) | Structure (SMILES) | inhibition at 0.01 µM [1, 7] [%] | inhibition at 0.5 µM [1, 8] [%] | inhibition at 0.01 µM [2] [%] | inhibition at 0.5 µM [2] [%] | inhibition at 0.01 µM [3] [%] | inhibition at 0.5 µM [3] [%] | Inhibition Rate at 10 nM (%) [1, 7] | Inhibition Rate at 500 nM (%) [1, 8] | Inhibition Rate at 10 nM (%) ([5]; 10 nM) | Inhibition Rate at 500 nM (%) ([5]; 500 nM) | Inhibition Rate at 10 nM (%) ([2]; MV-4-11, 10 nM) | Inhibition Rate at 500 nM (%) ([2]; MV-4-11, 500 nM) | Inhibition Rate at 10 nM (%) ([6]; Table IN2) | Inhibition Rate at 10 nM (%) ([6]; Table IN3) | Inhibition Rate at 500 nM (%) ([6]; Table IN2) | Inhibition Rate at 500 nM (%) ([6]; Table IN3)
– | – | – | COc1cc(N2CCC(N3CCN(Cc4ccc5c(c4)CN(N4CCC(=O)NC4=O)C5=O)CC3)CC2)ccc1Nc1ncc(Cl)c(Nc2ccccc2P(C)(C)=O)n1 [GT-08146, 1-(5-((4-(1-(4-((5-chloro-4-((2-(dimethylphosphoryl)phenyl)amino)pyrimidin-2-yl)amino)-3-methoxyphenyl)piperidin-4-yl)piperazin-1-yl)methyl)-1-oxoisoindolin-2-yl)dihydropyrimidine-2,4 (1H,3H)-dione] | 45 to 55 | 90 to 100 | 15 to 20 | 90 to 100 | 20 to 30 | 60 to 80 | – | – | – | – | – | – | – | – | – | –
– | – | – | COc1cc(N2CCC(N(C)Cc3ccc4c(c3)CN(N3CCC(=O)NC3=O)C4=O)CC2)ccc1Nc1ncc(Cl)c(Nc2ccccc2P(C)(C)=O)n1 [GT-08148, 1-(5-(((1-(4-((5-chloro-4-((2-(dimethylphosphoryl)phenyl)amino)pyrimidin-2-yl)amino)-3-methoxyphenyl)piperidin-4-yl)(methyl)amino)methyl)-1-oxoisoindolin-2-yl)dihydropyrimidine-2,4 (1H,3H)-dione] | 30 to 45 | 90 to 100 | 5 to 10 | 60 to 80 | 15 to 20 | 45 to 55 | – | – | – | – | – | – | – | – | – | –
1000 to 5000 | a (0% < a ≤ 10%) | a (0% < a ≤ 10%) | CCc1cc2c(cc1N1CCC(N3CCOCC3)CC1)C(C)(C)c1[nH]c3cc(C#N)ccc3c1C2=O [alectinib, Alectinib, reference compound] | – | – | 5 to 10 | 30 to 45 | 5 to 10 | 20 to 30 | IBa4 (15% ≤ IBa4 < 20%) | IBa10 (80% ≤ IBa10 < 90%) | – | – | – | – | – | – | – | –
– | – | – | COc1cc(N2CCC(N3CCN(Cc4ccc5c(c4)C(=O)N(N4CCC(=O)NC4=O)C5=O)CC3)CC2)ccc1Nc1ncc(Cl)c(Nc2ccccc2P(C)(C)=O)n1 [GT-08147, 5-((4-(1-(4-((5-chloro-4-((2-(dimethylphosphoryl)phenyl)amino)pyrimidin-2-yl)amino)-3-methoxyphenyl)piperidin-4-yl)piperazin-1-yl)methyl)-2-(2,4-dioxotetrahydropyrimidin-1(2H)-yl)isoindoline-1,3-dione] | 10 to 15 | 90 to 100 | 20 to 30 | 60 to 80 | 20 to 30 | 45 to 55 | – | – | – | – | – | – | – | – | – | –
– | – | – | CC(C)CCN1c2nc(Nc3cc(F)c(O)c(F)c3)ncc2N(C)C(=O)C1C (centres unmarked) [BI-D1870, reference compound] | – | – | – | – | – | – | – | – | INd1 (0% < INd1 < 5%) | INd5 (20% ≤ INd5 < 30%) | INa3 (−5% ≤ INa3 ≤ 0%) | INa7 (20% ≤ INa7 < 30%) | INb2 (−15% < INb2 < −5%) | INc1 (0% < INcl < 5%) | INb5 (5% ≤ INb5 < 10%) | INc3 (10% ≤ INc3 < 15%)
